Data set [1] deals with dermal herpes simplex virus-1 (HSV-1) infection. In words: Dermal HSV-1 infection in guinea pigs, topical treatment (lesion number, lesion area, skin virus titer). The following applies: for effectiveness in reducing dermal HSV-1 virus infection compared with acyclovir and phosphotriester prodrugs (in words): dermal HSV-1 infection; for lesion number, lesion area and lesion virus titer (summary in words): guinea pigs with dermal HSV-1 infections, compared to vehicle/placebo. The data set is classed as in vivo, guinea pig (Female Hartley outbred). As for the experimental part:
The formulation for Prodrug 1 contained 5% EL-620 EMULPHOR (polyoxyethylated castor oil) (Rhone Poluenc), 5% CARBOPOL (Carboxypolymethylene, sodium salt) (B. F. Goodrich), 10% ethanol and 2% by weight Prodrug 1. The balance of the formulation consisted of water.
EL-620 EMULPHOR and water were mixed and ultrasonicated to give a clear emulsion, to which the ethanol was added. The prodrug was then added, and the mixture was ultrasonicated. The sodium carbopol was then added to the emulsion and mixed until to homogeneity.
The placebo was prepared identically to the pharmaceutical compositions except that the prodrugs were omitted.
The pharmaceutical compositions were stored at room temperature.
Female Hartley outbred guinea pigs, 400 to 450 grams, were obtained from Charles River Breeding Labs, Wilmington, Mass. Animals were anesthetized with 25 mg/kg ketamine and 5 mg/kg xylazine SQ. Hair on the dorsum from the shoulders to the rump was removed with electric clippers followed by two 5-10 minute applications of a chemical depilatory. A grid of four areas was demarcated with a pen on both sides of the spine at levels corresponding to mid back and rump.
Undiluted HSV-1 virus stock (0.035 ml) was applied to each different area and introduced through the skin at well-spaced sites at ten activations of a six-pronged spring-loaded vaccination instrument (Sterneedle, Pan Ray Division, Ormont Drug, Englewood, N.J.). The day of inoculation is Day 0. Approximately 250 mg of drug or placebo was applied to the areas according to the dosing regimen on Days 1, 2 and 3. Eight guinea pigs were used during the experiments allowing eight comparisons between each drug and its placebo.
On Day 4 regrown hair on the dorsum of the guinea pigs was removed with one 3-4 minute application of a chemical depilatory. HSV lesions were counted and Polaroid pictures of the animals' backs were taken. The animals were sacrificed using CO2 gas and the full thickness skin of the back was removed by dissection. The square of the skin from each of the four treatment areas was placed into 15 mls of tissue culture medium with 2% FES in an ice bath. The samples were then homogenized in a stomacher Lab Blender 80 (Tekmar Co.). Debris was pelleted by centrifugation and the supernatants collected and frozen at -70° C. until assay for infectivity by plaque formation in VERO cells.
The mean and standard deviation for number of lesions, total lesion area and lesion virus titer were computed. Paired data (drug/vehicle) were evaluated by the Wilcoxon signed-rank test using percent differences between log10 derivatives of mean lesions severity at drug-treated sites compared to the Vehicle-treated sites.
Prodrug 2 was formulated as described in Example 1. One Hartley guinea pig was inoculated with HSV-1 as described in Example 1. The guinea pig was treated with Prodrug 2 according to the protocol used in Example 1 for Prodrug 1.

The subject of the next data set is pig liver esterase. In words: Incubation with pig liver esterase in phosphate buffered D2O, NMR. The data set is classed as in vitro ADME. The text has this:
This assay is described in Glazier, WO 91/19721 entitled "Phosphorus Prodrugs" and can be used to determine suitable hydroxyl or amino protecting groups which can be cleaved in vivo. The entire teachings of […] are incorporated herein by reference. It is to be understood that there are other in vitro assays known to one of ordinary skill in the art employing esterases, amidases or enzymes capable of cleaving carbonate, carbamate, ester and amide groups which can also be used to determine suitable protecting groups.

The test system of another data set is herpes simplex labialis. The note with it: cited from earlier work.
Where [2] appears, read: guinea pigs, topical, 2% by weight Prodrug 1 formulation, Days 1, 2 and 3, vs placebo (p<0.01).

For the compound `COC(=O)CC(OP(=O)(O)OCCOCn1cnc2c(=O)[nH]c(N)nc21)c1ccc(OC(=O)C(C)(C)C)cc1` (centres unmarked) [Prodrug 1, Sodium 2-((9-Guanylyl)methyl)oxy)ethyl 1-(4-((2,2-dimethylpropionyl)oxy)-phenyl)-2-((methoxy)carbonyl)ethyl phosphate], in data set [1], the “effectiveness in reducing dermal HSV-1 virus infection compared with acyclovir and phosphotriester prodrugs (in words)” value is “more Effective in Reducing Dermal HSV-1 Virus Infection than Acyclovir”; the “lesion number, lesion area and lesion virus titer (summary in words)” value is “dramatic reduction in lesion number, in lesion area and in lesion virus titer”. In data set [1] (setting [2]), the “reduction in lesion area” value amounted to 79%, the “reduction in lesion number” value is listed as 72% and the “reduction in skin viral titers” value was determined as 93%. Also, the “degradation by esterase, products by NMR” value with pig liver esterase was “degraded to acyclovir monophosphate and p-hydroxycinnamic”.

As for `COC(=O)CC(OP(=O)(O)OCCOCn1cnc2c(=O)[nH]c(N)nc21)c1ccc(OC(C)=O)cc1` (centres unmarked) [Prodrug 2, sodium 2-((9-guanylyl)methyl)oxy)ethyl-1-(4-acetoxyphenyl)-2-((methoxy)carbonyl)ethyl phosphate], in data set [1], the “effectiveness in reducing dermal HSV-1 virus infection compared with acyclovir and phosphotriester prodrugs (in words)” value was “more Effective in Reducing Dermal HSV-1 Virus Infection than Acyclovir”; the “lesion number, lesion area and lesion virus titer (summary in words)” value was “dramatic reduction in lesion number, in lesion area and in lesion virus titer”. Further, in data set [1] (one Hartley guinea pig, formulated as in Example 1, compared with Prodrug 1 in Example 1), the “reduction in lesion number, lesion area and skin viral titers (in words)” value is “comparable reduction in lesion number, lesion area and in skin viral titers”.

On to `Nc1nc2c(ncn2COCCO)c(=O)[nH]1` [acyclovir], for which the “effectiveness of oral acyclovir in cold sores” value in the data set on herpes simplex labialis (oral) is on record as “only partially effective”. The “response of cold sores to topical acyclovir” value in the data set on herpes simplex labialis (topical) was “do not respond”.

The values are drawn from patent US6214811A, “Acyclovir diester derivatives” (Drug Innovation & Design, Inc., priority 2000, dated 2001).
